Source: ChEMBL document CHEMBL4699412, “Understanding the mechanism of action of pyrrolo[3,2-b]quinoxaline-derivatives as kinase inhibitors” (RSC Med Chem, 2020)

How the values were obtained:
[1] = target: Tyrosine-protein kinase CSK (Homo sapiens) (UniProt P41240); assay: Inhibition of wild-type human full length CSK (M1 to L450 residues) expressed in bacterial expression system at 1 uM by Kinomescan method relative to control
[2] = target: Tyrosine-protein kinase Yes (Homo sapiens) (UniProt P07947); assay: Inhibition of wild-type human partial length YES (T257 to L543 residues) expressed in bacterial expression system at 1 uM by Kinomescan method relative to control
Chain of Tyrosine-protein kinase Yes (Homo sapiens) (P07947 2-543 limits assumed): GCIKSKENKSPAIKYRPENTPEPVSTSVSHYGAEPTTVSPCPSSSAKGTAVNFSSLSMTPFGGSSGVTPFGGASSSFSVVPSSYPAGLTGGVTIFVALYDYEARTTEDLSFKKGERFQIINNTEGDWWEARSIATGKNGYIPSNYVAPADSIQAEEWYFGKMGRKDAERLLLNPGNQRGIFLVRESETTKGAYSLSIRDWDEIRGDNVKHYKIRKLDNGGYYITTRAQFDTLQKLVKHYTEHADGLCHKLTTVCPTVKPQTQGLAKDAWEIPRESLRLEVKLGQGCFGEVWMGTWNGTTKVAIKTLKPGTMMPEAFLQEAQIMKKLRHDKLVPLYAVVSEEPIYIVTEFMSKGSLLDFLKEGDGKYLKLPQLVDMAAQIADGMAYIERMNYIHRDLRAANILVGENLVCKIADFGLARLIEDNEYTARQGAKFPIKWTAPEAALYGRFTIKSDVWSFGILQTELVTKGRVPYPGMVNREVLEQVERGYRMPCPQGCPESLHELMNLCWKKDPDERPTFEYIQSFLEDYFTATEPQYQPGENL

[3] = target: Tyrosine-protein kinase BTK (Homo sapiens) (UniProt Q06187); assay: Inhibition of wild-type human full length BTK (M1 to S659 residues) expressed in mammalian expression system at 1 uM by Kinomescan method relative to control
Chain of Tyrosine-protein kinase BTK (Homo sapiens) (Q06187 whole entry, the tested form may be a part): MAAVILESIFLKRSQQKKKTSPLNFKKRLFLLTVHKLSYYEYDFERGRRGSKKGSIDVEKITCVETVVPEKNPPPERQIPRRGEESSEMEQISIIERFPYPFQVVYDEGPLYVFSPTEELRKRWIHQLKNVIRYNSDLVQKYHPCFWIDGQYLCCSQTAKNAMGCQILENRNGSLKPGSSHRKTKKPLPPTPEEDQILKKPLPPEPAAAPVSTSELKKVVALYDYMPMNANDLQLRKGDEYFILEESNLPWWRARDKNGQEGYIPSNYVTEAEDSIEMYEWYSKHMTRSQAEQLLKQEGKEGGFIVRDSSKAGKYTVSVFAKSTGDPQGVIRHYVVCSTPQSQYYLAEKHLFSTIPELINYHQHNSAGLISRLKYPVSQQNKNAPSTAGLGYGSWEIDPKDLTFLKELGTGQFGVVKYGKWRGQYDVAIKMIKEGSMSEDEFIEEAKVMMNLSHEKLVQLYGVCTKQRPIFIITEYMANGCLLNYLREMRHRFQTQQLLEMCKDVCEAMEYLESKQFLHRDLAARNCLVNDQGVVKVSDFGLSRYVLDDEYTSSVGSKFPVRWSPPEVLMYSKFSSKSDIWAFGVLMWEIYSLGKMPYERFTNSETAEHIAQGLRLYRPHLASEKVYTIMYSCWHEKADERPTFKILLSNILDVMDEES

[4] = target: Tyrosine-protein kinase Lyn (Homo sapiens) (UniProt P07948); assay: Inhibition of wild-type human partial length LYN (C219 to Q511 residues) expressed in bacterial expression system at 1 uM by Kinomescan method relative to control
Chain of Tyrosine-protein kinase Lyn (Homo sapiens) (P07948 2-512 limits assumed): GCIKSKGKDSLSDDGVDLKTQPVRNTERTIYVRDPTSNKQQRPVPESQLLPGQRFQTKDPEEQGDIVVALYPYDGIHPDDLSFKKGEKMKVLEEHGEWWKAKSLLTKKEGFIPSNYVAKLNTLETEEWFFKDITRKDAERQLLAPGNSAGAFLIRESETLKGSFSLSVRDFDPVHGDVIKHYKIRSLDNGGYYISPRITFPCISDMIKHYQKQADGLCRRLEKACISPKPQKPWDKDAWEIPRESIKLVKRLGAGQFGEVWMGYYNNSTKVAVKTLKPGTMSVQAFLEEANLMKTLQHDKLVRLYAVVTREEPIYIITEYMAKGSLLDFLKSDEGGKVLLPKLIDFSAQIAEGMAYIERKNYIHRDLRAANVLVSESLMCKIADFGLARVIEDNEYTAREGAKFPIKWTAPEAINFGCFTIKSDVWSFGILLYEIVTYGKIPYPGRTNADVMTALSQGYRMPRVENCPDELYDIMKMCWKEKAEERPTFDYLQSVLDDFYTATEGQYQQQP

cells [5] = settings: Homo sapiens, SU-DHL-1, 72 h
Ephrin type-B receptor 4 = target: T1, Ephrin type-B receptor 4 (Homo sapiens, UniProt P54760); assay: Inhibition of full-length human EPHB4 expressed in MEF cells assessed as autophosphorylation by sandwitch-ELISA; type: cell-based
T1 sequence (P54760 whole entry): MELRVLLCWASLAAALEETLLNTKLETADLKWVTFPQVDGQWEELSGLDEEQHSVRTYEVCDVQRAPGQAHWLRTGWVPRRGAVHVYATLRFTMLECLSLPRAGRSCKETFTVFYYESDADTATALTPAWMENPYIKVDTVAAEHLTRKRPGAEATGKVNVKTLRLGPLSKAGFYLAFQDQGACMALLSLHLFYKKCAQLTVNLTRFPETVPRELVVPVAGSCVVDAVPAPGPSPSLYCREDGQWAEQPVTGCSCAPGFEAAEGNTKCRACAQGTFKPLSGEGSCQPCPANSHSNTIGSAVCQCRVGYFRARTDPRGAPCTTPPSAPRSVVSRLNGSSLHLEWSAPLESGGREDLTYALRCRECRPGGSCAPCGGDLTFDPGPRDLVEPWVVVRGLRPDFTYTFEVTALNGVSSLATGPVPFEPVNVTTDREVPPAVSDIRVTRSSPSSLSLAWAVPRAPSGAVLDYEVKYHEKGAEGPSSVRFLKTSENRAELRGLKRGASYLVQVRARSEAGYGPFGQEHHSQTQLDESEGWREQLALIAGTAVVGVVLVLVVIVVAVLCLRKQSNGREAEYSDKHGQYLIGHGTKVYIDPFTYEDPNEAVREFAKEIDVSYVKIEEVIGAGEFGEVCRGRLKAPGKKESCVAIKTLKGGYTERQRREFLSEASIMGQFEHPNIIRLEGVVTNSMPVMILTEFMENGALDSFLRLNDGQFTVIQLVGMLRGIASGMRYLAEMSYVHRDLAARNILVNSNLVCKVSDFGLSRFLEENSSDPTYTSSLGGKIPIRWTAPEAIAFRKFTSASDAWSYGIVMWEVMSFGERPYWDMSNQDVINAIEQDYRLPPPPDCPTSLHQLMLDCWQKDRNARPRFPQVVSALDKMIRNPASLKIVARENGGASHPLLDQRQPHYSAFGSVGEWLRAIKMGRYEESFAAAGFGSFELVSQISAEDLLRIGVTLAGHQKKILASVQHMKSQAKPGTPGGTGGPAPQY

cells [6] = settings: Homo sapiens, PCL12, 72 h
JeKo-1 = assay: cells; settings: Homo sapiens, JeKo-1, 72 h
[7] = Toxicity in NOD-SCID nude mouse xenografted with human Ri1 cells assessed as body weight loss at 100 mg/kg, ip; type: organism-based; settings: in vivo
[8] = Toxicity in NOD-SCID nude mouse xenografted with human Ri1 cells assessed as swelling surrounding the area of injection at 100 mg/kg, ip; type: organism-based; settings: in vivo
cells [9] = settings: Homo sapiens, Ri-1, 72 h
cells [10] = settings: Homo sapiens, MEC1, 72 h
HUVEC [11] = assay: Antiangiogenic activity against HUVEC cells assessed as reduction in tube formation incubated for 15 hrs by matrigel-based assay relative to control; type: functional, Homo sapiens
[12] = target: T2, Ephrin type-A receptor 3 (Homo sapiens) (UniProt P29320); assay: Binding affinity to EPHA3 (unknown origin) assessed as increase in change in melting temperature by differential scanning fluorimetric analysis
T2 sequence (whole entry): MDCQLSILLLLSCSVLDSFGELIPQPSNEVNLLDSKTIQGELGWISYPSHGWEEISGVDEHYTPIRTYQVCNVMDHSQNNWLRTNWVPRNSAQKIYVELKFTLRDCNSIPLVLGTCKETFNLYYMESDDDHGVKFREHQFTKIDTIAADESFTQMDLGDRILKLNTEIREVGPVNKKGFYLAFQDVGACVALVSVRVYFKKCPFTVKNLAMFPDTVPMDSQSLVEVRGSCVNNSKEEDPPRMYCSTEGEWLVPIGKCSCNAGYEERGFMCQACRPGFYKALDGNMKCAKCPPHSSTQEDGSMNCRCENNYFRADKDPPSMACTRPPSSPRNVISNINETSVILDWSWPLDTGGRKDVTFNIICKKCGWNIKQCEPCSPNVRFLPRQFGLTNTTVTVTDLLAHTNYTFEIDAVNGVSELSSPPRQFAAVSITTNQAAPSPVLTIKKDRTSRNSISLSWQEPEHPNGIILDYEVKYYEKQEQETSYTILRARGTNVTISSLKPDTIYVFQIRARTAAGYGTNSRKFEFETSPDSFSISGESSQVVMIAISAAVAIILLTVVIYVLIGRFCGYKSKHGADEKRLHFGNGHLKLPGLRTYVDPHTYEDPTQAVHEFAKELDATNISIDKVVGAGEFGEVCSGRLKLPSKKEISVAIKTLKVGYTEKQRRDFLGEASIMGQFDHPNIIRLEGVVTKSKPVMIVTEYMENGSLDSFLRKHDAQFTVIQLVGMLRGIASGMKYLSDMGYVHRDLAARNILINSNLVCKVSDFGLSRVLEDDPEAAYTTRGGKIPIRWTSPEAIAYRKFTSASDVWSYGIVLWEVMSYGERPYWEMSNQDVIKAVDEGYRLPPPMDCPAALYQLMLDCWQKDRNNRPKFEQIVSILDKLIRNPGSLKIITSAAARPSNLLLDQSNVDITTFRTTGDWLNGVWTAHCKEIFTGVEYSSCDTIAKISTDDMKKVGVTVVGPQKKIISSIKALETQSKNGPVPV

HUVEC [13] = assay: Antiangiogenic activity against HUVEC cells assessed as reduction in total loops incubated for 15 hrs by matrigel-based assay relative to control; type: functional, Homo sapiens
HUVEC [14] = assay: Antiangiogenic activity against HUVEC cells assessed as reduction in total branching points incubated for 15 hrs by matrigel-based assay relative to control; type: functional, Homo sapiens
Maver1 = assay: cells; settings: Homo sapiens, Maver1, 72 h
[15] = Toxicity in NOD-SCID nude mouse xenografted with human Ri1 cells assessed as body weight loss at 100 mg/kg, ip once every 5 days; settings: in vivo, 360 h
[16] = Antitumor activity against human Ri1 cells xenografted in NOD-SCID mouse assessed as fold change in tumor size at 100 mg/kg, ip administered for 2 weeks by caliper method relative to control; type: functional, Ri-1

Chain of Tyrosine-protein kinase CSK (Homo sapiens) (P41240 2-450 limits assumed): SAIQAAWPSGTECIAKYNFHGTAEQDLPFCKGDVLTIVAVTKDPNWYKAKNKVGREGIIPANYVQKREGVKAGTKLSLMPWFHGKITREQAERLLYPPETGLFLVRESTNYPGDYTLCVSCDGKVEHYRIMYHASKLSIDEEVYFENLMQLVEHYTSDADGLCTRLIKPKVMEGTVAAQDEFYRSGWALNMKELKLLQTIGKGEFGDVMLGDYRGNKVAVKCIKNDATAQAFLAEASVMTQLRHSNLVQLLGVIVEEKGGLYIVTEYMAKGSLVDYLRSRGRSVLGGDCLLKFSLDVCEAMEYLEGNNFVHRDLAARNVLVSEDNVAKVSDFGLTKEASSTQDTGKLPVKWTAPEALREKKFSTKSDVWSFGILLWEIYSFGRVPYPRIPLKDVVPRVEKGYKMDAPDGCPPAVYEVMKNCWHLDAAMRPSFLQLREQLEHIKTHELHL

## Cc1ccc(-n2nc(C(C)(C)C)cc2NC(=O)Nc2ccc(-n3c(N)c(C(N)=O)c4nc5ccc(NCCCN)cc5nc43)cc2)cc1
[1]
  % control: 0.65%
[2]
  % control: 1.9%
[3]
  % control: 3.3%
[4]
  % control: 0.5%

## Cc1ccc(-n2nc(C(C)(C)C)cc2NC(=O)Nc2ccc(-n3c(N)c(C(N)=O)c4nc5ccccc5nc43)cc2)cc1
[1]
  % control: 0.9%
Cells [5]
  IC50: 600 nM
[2]
  % control: 9.6%
Ephrin type-B receptor 4
  EC50: 360 nM
Cells [6]
  IC50: 600 nM
JeKo-1
  IC50: 600 nM
[7]
  Activity: Toxic
[8]
  Activity: Toxic
[3]
  % control: 0.95%
Cells [9]
  IC50: 600 nM
Cells [10]
  IC50: 600 nM
[4]
  % control: 0.85%
HUVEC [11]
  inhibition (INH): 65%
[12]
  ΔTm: 17.3 °C
HUVEC [13]
  inhibition (INH): 100%
HUVEC [14]
  inhibition (INH): 90%
Maver1
  IC50: 600 nM

## CC(C)(C)c1cc(NC(=O)Nc2ccc(-n3c(N)c(C(N)=O)c4nc5ccccc5nc43)cc2)n(-c2ccc3ncccc3c2)n1
Cells [5]
  IC50: 250 nM
Ephrin type-B receptor 4
  EC50: 1100 nM
Cells [6]
  IC50: 250 nM
JeKo-1
  IC50: 250 nM
[15]
  Activity: Non-Toxic
Cells [9]
  IC50: 250 nM
Cells [10]
  IC50: 250 nM
[12]
  ΔTm: 19.3 °C
[16]
  fold change (FC): 3
Maver1
  IC50: 250 nM
